The source of these data is the supplement of paper PMC12698765.

± gives the standard deviation of the averaged measurements.

Test [1] deals with 409B2 hiPSC (iCRISPR Cas9, FRMD7 editing). In words: cell survival relative to solvent control (fold (ratio to mock)); higher = more surviving cells. On the procedure:
(§1)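 Subset screen of 55 drugs tested at 5 concentrations around the effective screening dose, in 409B2 iCRISPR Cas9 hiPSCs editing FRMD7 with a ssDNA donor. Drugs were applied for 24 h. Viability was read by resazurin and editing outcomes by amplicon sequencing (HDR, NHEJ <2 bp microhomology, MMEJ ≥2 bp microhomology). Values are relative to solvent mock controls; two biological replicates.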

Test [2] has the same test system. In words: NHEJ-attributed indel frequency relative to solvent control (fold (ratio to mock)); higher = more NHEJ outcomes. On the procedure: as §1
The test system is the same in test [3]. In words: MMEJ-attributed deletion frequency relative to solvent control (fold (ratio to mock)); higher = more MMEJ outcomes. The procedure:
as §1

The test system is the same in test [4]. In words: HDR (precise edit) frequency relative to solvent control (fold (ratio to mock)); higher = more homology-directed repair outcomes. On the procedure:
as §1

On to `CO[C@H]1O[C@@H]2O[C@@]3(C)CC[C@H]4[C@H](C)CC[C@@H]([C@H]1C)[C@@]24OO3` [Artemether (SM-224)] (in DMSO), for which the cell survival in test [1] (200 nM) was determined as 0.947; in test [1] (500 nM) it was 1.23; in test [1] (1000 nM), 0.644; in test [1] (2000 nM) it was 1.09; in test [1] (5000 nM), 1.03. Further, the NHEJ-attributed indel frequency was 0.983 ± 0.012 in test [2] (200 nM); 0.976 ± 0.022 in test [2] (500 nM); 0.958 ± 0.011 in test [2] (1000 nM); 1 ± 0.024 in test [2] (2000 nM); 1.02 ± 0.037 in test [2] (5000 nM). The MMEJ-attributed deletion frequency in test [3] (200 nM) is 0.853 ± 0.13; in test [3] (500 nM) it was 0.935 ± 0.072; in test [3] (1000 nM), 0.804 ± 0.037; in test [3] (2000 nM) it was 0.907 ± 0.14; in test [3] (5000 nM) it was 0.946 ± 0.026. Moreover, the HDR in test [4] (200 nM) worked out at 1.06 ± 0.036; in test [4] (500 nM) it was 1.13 ± 0.018; in test [4] (1000 nM), 1.123 ± 0.0055; in test [4] (2000 nM), 1.09 ± 0.11; in test [4] (5000 nM), 1.17 ± 0.15.
For the compound `C[C@@H]1O[C@@H](O[C@H]2C[C@@H](O)[C@]3(CO)[C@H]4[C@H](O)C[C@]5(C)[C@@H](C6=CC(=O)OC6)CC[C@]5(O)[C@@H]4CC[C@]3(O)C2)[C@H](O)[C@H](O)[C@H]1O` [Ouabain Octahydrate] (in H2O), the cell survival in test [1] (2000 nM) came to 0.0512; in test [1] (5000 nM) it was 0.0777; in test [1] (10000 nM) it was 0.0589; in test [1] (20000 nM) it was 0.0655; in test [1] (50000 nM) it was 0.585. Besides, the NHEJ-attributed indel frequency in test [2] (2000 nM) is 0.523 ± 0.026; in test [2] (5000 nM) it was 0.539 ± 0.1; in test [2] (10000 nM), 0.435 ± 0.13; in test [2] (20000 nM), 0.392 ± 0.093; in test [2] (50000 nM), 0.736 ± 0.38. Further, the MMEJ-attributed deletion frequency in test [3] (2000 nM) was found to be 3.06 ± 0.43; in test [3] (5000 nM), 2.82 ± 1.1; in test [3] (10000 nM), 2.58 ± 0.43; in test [3] (20000 nM), 2.31 ± 0.4; in test [3] (50000 nM), 1.87 ± 1.1. Further, the HDR was 0.0693 ± 0.021 in test [4] (2000 nM); 0.0683 ± 0.03 in test [4] (5000 nM); 0.0814 ± 0.045 in test [4] (10000 nM); 0.068 ± 0.013 in test [4] (20000 nM); 0.505 ± 0.64 in test [4] (50000 nM).
Turning to `CC(C)(c1ccc(O)cc1)c1ccc(O)cc1` [Bisphenol A] (in DMSO), the cell survival in test [1] (20 nM) amounted to 1.02; in test [1] (50 nM), 1.14; in test [1] (100 nM) it was 0.953; in test [1] (200 nM), 1.22; in test [1] (500 nM), 1.14. Further, the NHEJ-attributed indel frequency in test [2] (20 nM) came to 1 ± 0.011; in test [2] (50 nM), 1.01 ± 0.014; in test [2] (100 nM) it was 1.01 ± 0.045; in test [2] (200 nM), 1.015 ± 0.0024; in test [2] (500 nM), 1.02 ± 0.051. Also, the MMEJ-attributed deletion frequency in test [3] (20 nM) came out at 1.02 ± 0.062; in test [3] (50 nM), 0.8949 ± 0.0088; in test [3] (100 nM) it was 0.974 ± 0.23; in test [3] (200 nM) it was 0.965 ± 0.066; in test [3] (500 nM), 1.01 ± 0.15. Moreover, the HDR in test [4] (20 nM) stood at 1.025 ± 0.0061; in test [4] (50 nM), 1.01 ± 0.028; in test [4] (100 nM) it was 1.07 ± 0.025; in test [4] (200 nM) it was 1.023 ± 0.0052; in test [4] (500 nM), 0.983 ± 0.05.
As for `CO[C@@H]1[C@H](OC(=O)/C=C/C=C/C=C/C=C/C(=O)O)CC[C@]2(CO2)[C@H]1[C@@]1(C)O[C@@H]1CC=C(C)C` [Fumagillin] (in DMSO), the cell survival in test [1] (20 nM) was 0.264; in test [1] (50 nM), 0.134; in test [1] (100 nM), 0.0522; in test [1] (200 nM) it was 0.0162; in test [1] (500 nM) it was 0.0244. Further, the NHEJ-attributed indel frequency amounted to 0.883 ± 0.019 in test [2] (20 nM); 0.767 ± 0.041 in test [2] (50 nM); 0.723 ± 0.14 in test [2] (100 nM); 0.604 ± 0.14 in test [2] (200 nM); 0.537 ± 0.071 in test [2] (500 nM). The MMEJ-attributed deletion frequency in test [3] (20 nM) was 0.749 ± 0.1; in test [3] (50 nM), 0.7745 ± 0.0004; in test [3] (100 nM), 0.739 ± 0.15; in test [3] (200 nM) it was 0.705 ± 0.15; in test [3] (500 nM) it was 0.656 ± 0.17. In addition, the HDR amounted to 1.073 ± 0.0017 in test [4] (20 nM); 0.886 ± 0.049 in test [4] (50 nM); 0.791 ± 0.23 in test [4] (100 nM); 0.512 ± 0.27 in test [4] (200 nM); 0.471 ± 0.18 in test [4] (500 nM).
For the compound `CCCCCCCCCCCCCC(=O)O` [Myristic Acid] (in DMSO), the cell survival in test [1] (20 nM) worked out at 1.01; in test [1] (50 nM), 1.23; in test [1] (100 nM), 1.07; in test [1] (200 nM) it was 1.25; in test [1] (500 nM) it was 1.49. The NHEJ-attributed indel frequency was determined as 0.9964 ± 0.0076 in test [2] (20 nM); 1.0053 ± 2.8e-05 in test [2] (50 nM); 1.016 ± 0.003 in test [2] (100 nM); 0.981 ± 0.024 in test [2] (200 nM); 0.967 ± 0.0099 in test [2] (500 nM). Moreover, the MMEJ-attributed deletion frequency in test [3] (20 nM) came to 0.977 ± 0.13; in test [3] (50 nM) it was 0.921 ± 0.13; in test [3] (100 nM), 1.02 ± 0.2; in test [3] (200 nM), 1.1 ± 0.051; in test [3] (500 nM), 1.03 ± 0.099. For the same compound, the HDR in test [4] (20 nM) amounted to 1.04 ± 0.025; in test [4] (50 nM) it was 1.03 ± 0.072; in test [4] (100 nM) it was 1.034 ± 0.01; in test [4] (200 nM) it was 1.07 ± 0.019; in test [4] (500 nM), 1.1 ± 0.064.
Turning to `CC[C@H](CO)Nc1nc(NCc2ccccc2)c2ncn(C(C)C)c2n1` [Roscovitine (Seliciclib,CYC202)] (in DMSO), the cell survival in test [1] (20 nM) came out at 1.04; in test [1] (50 nM) it was 1.14; in test [1] (100 nM), 0.963; in test [1] (200 nM), 0.955; in test [1] (500 nM), 1.17. The NHEJ-attributed indel frequency in test [2] (20 nM) worked out at 1.004 ± 0.0097; in test [2] (50 nM), 1 ± 0.011; in test [2] (100 nM) it was 0.992 ± 0.013; in test [2] (200 nM), 0.995 ± 0.037; in test [2] (500 nM) it was 1 ± 0.021. The MMEJ-attributed deletion frequency was 0.952 ± 0.12 in test [3] (20 nM); 0.912 ± 0.082 in test [3] (50 nM); 0.943 ± 0.021 in test [3] (100 nM); 0.943 ± 0.18 in test [3] (200 nM); 1 ± 0.058 in test [3] (500 nM). Further, the HDR in test [4] (20 nM) was found to be 1.06 ± 0.024; in test [4] (50 nM), 0.983 ± 0.017; in test [4] (100 nM), 1.08 ± 0.043; in test [4] (200 nM), 1.02 ± 0.043; in test [4] (500 nM) it was 1.11 ± 0.049.
